# Calls of active or inactive are those of the source.
# Tests used:
# Vero = Vero cell cytotoxicity, cytotoxicity control for flavivirus capping enzyme inhibitors (AID 588742); type: functional; details: Chlorocebus sabaeus
# Genome polyprotein = Genome polyprotein (dengue virus type 2, UniProt P29990); test: Dengue-2 NS5 methyltransferase inhibitors, primary screen, biochemical, confirmation dose response (AID 588689); type: functional
# Coagulation factor XII = target: T1, Coagulation factor XII (Homo sapiens, UniProt P00748); type: functional;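 note: activated factor XIIa alpha cleaving a fluorogenic AMC peptide substrate; inhibitor potency from loss of enzyme activity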
# T1 sequence (P00748 whole entry): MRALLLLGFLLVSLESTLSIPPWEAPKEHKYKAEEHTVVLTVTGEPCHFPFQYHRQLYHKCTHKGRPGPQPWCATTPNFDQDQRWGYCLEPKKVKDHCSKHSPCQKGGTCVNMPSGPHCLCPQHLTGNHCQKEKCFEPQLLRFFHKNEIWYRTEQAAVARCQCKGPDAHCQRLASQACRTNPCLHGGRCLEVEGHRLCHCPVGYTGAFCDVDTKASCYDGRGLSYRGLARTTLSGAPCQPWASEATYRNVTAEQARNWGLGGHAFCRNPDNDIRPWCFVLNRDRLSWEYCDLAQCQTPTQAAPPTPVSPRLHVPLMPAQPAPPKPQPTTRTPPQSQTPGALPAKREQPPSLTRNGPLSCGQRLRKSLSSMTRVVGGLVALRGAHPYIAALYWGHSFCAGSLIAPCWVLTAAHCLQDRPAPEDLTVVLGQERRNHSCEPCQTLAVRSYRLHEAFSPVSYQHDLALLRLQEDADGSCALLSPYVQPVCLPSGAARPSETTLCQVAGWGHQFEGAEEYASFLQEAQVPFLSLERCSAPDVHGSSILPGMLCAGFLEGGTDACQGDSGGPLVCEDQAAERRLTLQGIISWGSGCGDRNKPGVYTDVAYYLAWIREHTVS
# Protein RecA = target: T2, Protein RecA (Mycobacterium tuberculosis, UniProt P9WHJ3); test: Fluorescence Cell-Free Homogeneous Dose Retest to Identify Inhibitors of RecA-Intein Splicing Activity. [Related pubchem assays (depositor defined):AID2097, AID2223, AID489010, AID492950]; type: functional
# T2 sequence (P9WHJ3 whole entry): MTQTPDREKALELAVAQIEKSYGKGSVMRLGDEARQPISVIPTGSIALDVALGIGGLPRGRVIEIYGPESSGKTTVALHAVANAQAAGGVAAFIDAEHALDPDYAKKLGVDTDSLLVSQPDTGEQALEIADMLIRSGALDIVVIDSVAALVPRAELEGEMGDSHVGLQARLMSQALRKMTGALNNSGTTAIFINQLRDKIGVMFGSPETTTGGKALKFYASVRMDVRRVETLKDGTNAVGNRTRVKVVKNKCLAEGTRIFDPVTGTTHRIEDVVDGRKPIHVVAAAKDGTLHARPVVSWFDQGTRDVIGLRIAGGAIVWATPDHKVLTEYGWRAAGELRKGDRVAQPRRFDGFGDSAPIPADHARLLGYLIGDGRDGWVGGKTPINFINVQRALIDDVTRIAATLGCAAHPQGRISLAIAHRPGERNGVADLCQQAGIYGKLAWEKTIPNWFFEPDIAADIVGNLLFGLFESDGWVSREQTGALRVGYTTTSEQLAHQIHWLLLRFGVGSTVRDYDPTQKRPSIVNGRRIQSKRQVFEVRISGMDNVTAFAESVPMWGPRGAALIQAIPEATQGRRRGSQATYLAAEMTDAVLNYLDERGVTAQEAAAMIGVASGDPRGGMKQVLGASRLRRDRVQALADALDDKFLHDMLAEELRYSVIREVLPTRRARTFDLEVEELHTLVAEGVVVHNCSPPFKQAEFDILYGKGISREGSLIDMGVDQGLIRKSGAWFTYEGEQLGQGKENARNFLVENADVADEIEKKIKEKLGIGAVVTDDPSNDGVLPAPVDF
# [1] = target: T3, Replicative DNA helicase DnaB (Mycobacterium tuberculosis, UniProt P9WMR3); test: DnaB intein splicing inhibitors, dose response, biochemical, cell-free fluorescence (AID 449749); type: functional
# T3 sequence (P9WMR3 whole entry): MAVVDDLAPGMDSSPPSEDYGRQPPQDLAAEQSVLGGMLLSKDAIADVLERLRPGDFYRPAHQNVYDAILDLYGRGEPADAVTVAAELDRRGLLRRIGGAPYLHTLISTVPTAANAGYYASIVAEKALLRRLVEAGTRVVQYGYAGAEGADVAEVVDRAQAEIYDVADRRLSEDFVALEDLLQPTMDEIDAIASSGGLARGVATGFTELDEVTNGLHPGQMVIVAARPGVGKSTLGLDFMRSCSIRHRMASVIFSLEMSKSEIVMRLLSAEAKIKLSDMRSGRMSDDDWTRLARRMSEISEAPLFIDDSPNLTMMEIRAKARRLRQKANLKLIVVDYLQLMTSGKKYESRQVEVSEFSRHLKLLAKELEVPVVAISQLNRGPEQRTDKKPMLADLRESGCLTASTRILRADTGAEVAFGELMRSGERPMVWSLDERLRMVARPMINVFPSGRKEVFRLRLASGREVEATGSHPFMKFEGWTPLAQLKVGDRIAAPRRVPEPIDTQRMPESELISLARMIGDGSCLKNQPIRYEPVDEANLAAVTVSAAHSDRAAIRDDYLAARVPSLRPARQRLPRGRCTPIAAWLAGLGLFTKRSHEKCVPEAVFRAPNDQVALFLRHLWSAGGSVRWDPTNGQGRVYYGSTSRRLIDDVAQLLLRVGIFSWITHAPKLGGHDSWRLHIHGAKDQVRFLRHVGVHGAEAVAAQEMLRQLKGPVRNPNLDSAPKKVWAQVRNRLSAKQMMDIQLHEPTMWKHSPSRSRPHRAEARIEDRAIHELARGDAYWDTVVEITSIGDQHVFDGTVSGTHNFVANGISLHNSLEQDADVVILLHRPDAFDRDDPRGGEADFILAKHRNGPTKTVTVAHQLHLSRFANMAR
# [2] = target: T4, Apoptotic protease-activating factor 1 (Homo sapiens, UniProt O14727); type: functional
# T4 sequence (O14727 whole entry): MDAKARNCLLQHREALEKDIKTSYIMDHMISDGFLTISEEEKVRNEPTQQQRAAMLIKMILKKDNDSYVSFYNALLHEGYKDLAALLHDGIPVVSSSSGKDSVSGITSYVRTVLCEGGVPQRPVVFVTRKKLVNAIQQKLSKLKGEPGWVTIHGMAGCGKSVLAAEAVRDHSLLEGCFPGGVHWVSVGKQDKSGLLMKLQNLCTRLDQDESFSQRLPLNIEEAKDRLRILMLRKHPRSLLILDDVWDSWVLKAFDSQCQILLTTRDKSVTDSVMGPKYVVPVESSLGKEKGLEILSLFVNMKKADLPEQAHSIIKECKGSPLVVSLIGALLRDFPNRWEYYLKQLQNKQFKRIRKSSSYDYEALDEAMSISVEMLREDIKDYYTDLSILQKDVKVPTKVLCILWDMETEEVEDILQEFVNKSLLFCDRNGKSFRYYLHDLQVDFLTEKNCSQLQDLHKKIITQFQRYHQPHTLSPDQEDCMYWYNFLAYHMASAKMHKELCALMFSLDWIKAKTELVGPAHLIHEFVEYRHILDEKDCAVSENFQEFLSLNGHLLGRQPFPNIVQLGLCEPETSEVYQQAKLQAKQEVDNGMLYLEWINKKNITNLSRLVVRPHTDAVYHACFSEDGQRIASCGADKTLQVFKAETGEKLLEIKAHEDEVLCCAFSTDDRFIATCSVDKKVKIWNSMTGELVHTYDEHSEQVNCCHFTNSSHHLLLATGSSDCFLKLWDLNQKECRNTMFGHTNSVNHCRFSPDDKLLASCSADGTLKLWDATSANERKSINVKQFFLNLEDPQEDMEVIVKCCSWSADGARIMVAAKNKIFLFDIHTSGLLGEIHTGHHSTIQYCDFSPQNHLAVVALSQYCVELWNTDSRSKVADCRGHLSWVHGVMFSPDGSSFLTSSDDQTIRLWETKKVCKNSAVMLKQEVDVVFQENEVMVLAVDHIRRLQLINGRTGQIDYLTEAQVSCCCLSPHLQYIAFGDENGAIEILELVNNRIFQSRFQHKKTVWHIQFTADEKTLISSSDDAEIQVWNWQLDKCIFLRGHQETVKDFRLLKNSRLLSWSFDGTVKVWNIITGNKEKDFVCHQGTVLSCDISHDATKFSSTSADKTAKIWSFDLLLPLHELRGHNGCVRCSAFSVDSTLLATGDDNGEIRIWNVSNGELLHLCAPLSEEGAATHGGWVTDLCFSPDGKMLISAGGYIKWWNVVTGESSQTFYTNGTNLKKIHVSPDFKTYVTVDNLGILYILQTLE
# Cytochrome P450 3A4 = Cytochrome P450 3A4 (Homo sapiens, UniProt P08684);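 note: CYP3A4 tested as one member of a cytochrome P450 panel screen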
# Cytochrome P450 1A2 = target: T5, Cytochrome P450 1A2 (Homo sapiens, UniProt P05177);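 note: PubChem cytochrome P450 panel assay, CYP1A2 panel member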
# T5 sequence (P05177 whole entry): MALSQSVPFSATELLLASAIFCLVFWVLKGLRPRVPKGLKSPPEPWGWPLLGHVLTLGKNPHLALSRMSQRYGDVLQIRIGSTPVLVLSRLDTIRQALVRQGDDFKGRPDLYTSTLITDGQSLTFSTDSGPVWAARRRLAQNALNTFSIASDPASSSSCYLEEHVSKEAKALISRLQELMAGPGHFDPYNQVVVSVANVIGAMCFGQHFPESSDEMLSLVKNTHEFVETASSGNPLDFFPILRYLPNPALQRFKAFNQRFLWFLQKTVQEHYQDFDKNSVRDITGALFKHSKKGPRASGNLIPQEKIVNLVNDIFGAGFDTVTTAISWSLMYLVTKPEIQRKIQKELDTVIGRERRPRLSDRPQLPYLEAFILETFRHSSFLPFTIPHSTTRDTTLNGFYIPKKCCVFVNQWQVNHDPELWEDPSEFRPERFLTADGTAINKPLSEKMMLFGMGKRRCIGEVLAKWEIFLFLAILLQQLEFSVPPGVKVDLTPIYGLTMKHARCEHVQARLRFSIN
# Cytochrome P450 2D6 = Cytochrome P450 2D6 (Homo sapiens, UniProt P10635);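 note: CYP2D6 member of a cytochrome P450 panel assay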
# [3] = cytotoxicity in MIN6 insulinoma cells, dose response, cytotoxicity control, cell-based, mouse insulinoma (AID 2122); type: functional;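 note: confirmatory high-throughput counterscreen run to flag cytotoxic compounds; mouse MIN-6 beta cells carrying an insulin promoter eGFP reporter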
# [4] = HEp-2 cell cytotoxicity, dose response, cytotoxicity control for RSV inhibitor project, HTS (AID 2410); type: functional; details: human respiratory syncytial virus
# [5] = insulin promoter down-regulators in MIN6 cells, imaging, high-content screening, mouse beta cells (AID 1628); type: functional
# [6] = THP-1 cell cytotoxicity, dose response, cytotoxicity control for Vif-APOBEC3G degradation inhibitor project, THP-1 cells (AID 1117359); type: functional; details: Human immunodeficiency virus 1, THP-1
# Cytochrome P450 2C9 = Cytochrome P450 2C9 (Homo sapiens, UniProt P11712)
# [7] = target: T6, Polyadenylate-binding protein 1 (Homo sapiens, UniProt P11940); test: PABP1 MLLE–PAM2 binding inhibitor potency, dose response, biochemical, fluorescence polarization, FITC-PAM2 peptide (AID 602259); type: functional; details: read-out: IC50_Mean
# [8] = target: T6, Polyadenylate-binding protein 1; test: PABP1 MLLE–PAM2 interaction inhibitors, dose response, miRNA deadenylation inhibitor project, biochemical, fluorescence polarization, Cy5-PAM2 peptide, secondary (AID 602260); type: functional; details: read-out: IC50_Mean
# INS1 = test: beta cell apoptosis inhibitors, cytokine rescue, dose response, luminescence, retest (AID 449756); type: functional, cell-based; details: Rattus norvegicus;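 note: cell death triggered by IL-1 beta plus TNF-alpha plus IFN-gamma mixture; protective hits raise ATP signal compared with cytokine alone wells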
# [9] = Luminescence Cell-Based Dose Retest to Confirm Inhibitors of Cancer Stem Cells. [Related pubchem assays (depositor defined):AID2717, AID2721]; type: functional; details: Homo sapiens
# Sequence of Cytochrome P450 3A4 (P08684 whole entry): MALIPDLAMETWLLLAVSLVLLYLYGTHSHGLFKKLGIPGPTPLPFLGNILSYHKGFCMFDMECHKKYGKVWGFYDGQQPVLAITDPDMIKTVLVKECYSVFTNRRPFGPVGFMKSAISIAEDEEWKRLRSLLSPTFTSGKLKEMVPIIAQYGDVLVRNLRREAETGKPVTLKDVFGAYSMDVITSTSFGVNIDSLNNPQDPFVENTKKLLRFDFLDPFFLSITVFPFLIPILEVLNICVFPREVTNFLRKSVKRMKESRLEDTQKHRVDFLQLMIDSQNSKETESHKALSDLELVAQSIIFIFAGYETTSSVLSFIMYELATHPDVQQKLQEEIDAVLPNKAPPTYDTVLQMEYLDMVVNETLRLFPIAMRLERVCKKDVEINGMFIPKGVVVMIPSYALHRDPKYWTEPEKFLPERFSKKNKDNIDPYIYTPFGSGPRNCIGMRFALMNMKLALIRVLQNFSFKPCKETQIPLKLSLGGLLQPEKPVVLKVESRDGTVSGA
# T6 sequence (P11940 whole entry): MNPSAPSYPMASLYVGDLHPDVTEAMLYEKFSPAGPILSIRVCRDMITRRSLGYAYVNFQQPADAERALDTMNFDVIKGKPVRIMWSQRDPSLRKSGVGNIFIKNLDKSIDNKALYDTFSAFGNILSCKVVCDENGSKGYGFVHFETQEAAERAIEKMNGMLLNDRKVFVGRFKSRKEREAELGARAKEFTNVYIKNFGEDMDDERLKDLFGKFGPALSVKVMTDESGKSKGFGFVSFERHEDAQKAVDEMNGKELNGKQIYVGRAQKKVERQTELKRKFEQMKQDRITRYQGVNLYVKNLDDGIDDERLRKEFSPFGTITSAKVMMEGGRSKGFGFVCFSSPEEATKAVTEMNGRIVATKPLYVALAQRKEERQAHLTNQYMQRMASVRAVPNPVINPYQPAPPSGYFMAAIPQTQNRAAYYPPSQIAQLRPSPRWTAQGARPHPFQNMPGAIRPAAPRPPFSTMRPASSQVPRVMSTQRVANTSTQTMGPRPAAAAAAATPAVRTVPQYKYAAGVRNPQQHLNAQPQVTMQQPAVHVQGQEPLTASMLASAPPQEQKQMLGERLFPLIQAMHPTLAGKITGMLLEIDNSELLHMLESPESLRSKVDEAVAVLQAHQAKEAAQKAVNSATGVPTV
# Sequence of Cytochrome P450 2D6 (P10635 whole entry): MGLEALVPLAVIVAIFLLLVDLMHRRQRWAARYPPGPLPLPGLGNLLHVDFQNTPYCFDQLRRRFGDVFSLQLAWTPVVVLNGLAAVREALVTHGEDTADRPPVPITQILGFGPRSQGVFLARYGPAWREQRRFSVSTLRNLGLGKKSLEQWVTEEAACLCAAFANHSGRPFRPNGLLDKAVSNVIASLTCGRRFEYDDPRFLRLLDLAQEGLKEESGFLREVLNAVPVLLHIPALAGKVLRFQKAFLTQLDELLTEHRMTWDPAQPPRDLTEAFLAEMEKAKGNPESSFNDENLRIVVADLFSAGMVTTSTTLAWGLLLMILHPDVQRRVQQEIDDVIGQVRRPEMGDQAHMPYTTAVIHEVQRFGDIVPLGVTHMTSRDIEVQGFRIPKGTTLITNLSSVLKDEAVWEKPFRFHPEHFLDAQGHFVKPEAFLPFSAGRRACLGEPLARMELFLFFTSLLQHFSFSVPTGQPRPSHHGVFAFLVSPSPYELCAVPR
# Sequence of Genome polyprotein (P29990 2492-3391 limits assumed): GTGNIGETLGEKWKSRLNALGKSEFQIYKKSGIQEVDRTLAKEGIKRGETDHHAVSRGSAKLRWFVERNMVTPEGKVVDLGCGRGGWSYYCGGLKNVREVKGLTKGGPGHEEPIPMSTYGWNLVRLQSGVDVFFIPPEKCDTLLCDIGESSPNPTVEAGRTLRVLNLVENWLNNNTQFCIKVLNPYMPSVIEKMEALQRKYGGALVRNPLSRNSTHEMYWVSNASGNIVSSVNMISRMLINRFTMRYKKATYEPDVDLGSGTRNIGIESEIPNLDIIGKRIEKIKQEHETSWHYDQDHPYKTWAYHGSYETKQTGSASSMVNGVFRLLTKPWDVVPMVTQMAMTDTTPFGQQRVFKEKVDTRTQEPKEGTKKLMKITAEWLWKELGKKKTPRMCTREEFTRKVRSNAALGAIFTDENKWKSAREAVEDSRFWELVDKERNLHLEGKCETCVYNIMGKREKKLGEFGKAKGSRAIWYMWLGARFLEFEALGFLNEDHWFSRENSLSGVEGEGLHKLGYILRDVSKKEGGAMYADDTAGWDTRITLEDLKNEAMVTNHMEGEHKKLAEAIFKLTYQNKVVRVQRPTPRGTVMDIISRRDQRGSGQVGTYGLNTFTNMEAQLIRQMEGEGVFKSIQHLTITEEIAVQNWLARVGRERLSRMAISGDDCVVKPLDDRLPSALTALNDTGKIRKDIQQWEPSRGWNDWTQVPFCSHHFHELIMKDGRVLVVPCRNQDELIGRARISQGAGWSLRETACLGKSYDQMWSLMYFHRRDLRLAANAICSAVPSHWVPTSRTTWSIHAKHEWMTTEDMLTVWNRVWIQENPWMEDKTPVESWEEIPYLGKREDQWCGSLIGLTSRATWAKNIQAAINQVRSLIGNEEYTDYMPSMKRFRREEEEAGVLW
# Sequence of Cytochrome P450 2C9 (P11712 whole entry): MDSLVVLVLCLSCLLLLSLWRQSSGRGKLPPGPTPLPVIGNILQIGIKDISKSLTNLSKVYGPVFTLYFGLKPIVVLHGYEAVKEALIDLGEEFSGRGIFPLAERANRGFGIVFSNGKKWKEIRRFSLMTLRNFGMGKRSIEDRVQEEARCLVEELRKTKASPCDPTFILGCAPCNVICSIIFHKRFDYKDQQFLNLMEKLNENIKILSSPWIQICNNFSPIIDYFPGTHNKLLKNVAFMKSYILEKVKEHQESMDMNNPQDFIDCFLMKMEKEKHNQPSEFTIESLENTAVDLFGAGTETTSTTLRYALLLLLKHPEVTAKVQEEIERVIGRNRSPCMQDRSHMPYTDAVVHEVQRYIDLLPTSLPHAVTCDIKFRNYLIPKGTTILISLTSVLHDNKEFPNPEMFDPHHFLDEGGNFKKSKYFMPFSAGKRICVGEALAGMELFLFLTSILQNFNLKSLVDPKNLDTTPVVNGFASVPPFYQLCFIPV
smiles,measurement,setting,value
COc1cc(/C=C2\SC(=S)N(NS(=O)(=O)c3ccccc3)C2=O)cc(OC)c1OC,CC50,Vero,> 40 µM (active)
same,IC50,Genome polyprotein,65 µM (active)
O=C(COC(=O)C1CC(=O)N(Cc2ccco2)C1)c1ccc(OC(=O)c2ccco2)cc1 (stereo not given),IC50,Coagulation factor XII,13.3 µM (active)
same,EC50,Protein RecA,18 µM (active)
same,AC50,[1],> 380 µM (inactive)
Cc1ccc(-c2nnc(CSc3nnc(COc4cccc5ccccc45)n3-c3ccccc3)o2)cc1,IC50,[2],6.83 µM (active)
NCCS [CYSTEAMINE],AC50,Cytochrome P450 3A4,inconclusive
O[C@@H](c1ccccc1)C1CCN(CCc2ccccc2)CC1,AC50,Cytochrome P450 1A2,31.6 µM (inconclusive)
same,AC50,Cytochrome P450 3A4,inconclusive
same,AC50,Cytochrome P450 2D6,25.1 µM (inconclusive)
CC(=O)c1cccc(S(=O)(=O)N2CCN(c3nc4cc(C)cc(C)c4cc3C#N)CC2)c1,IC50,[3],5.84 µM (active)
same,CC50,[4],18.4 µM (active)
same,IC50,[5],3.28 µM (active)
CCN1CCN(CC(=O)N2c3ccccc3CC2C)CC1.O=C(O)C(=O)O (stereo not given),AC50,Cytochrome P450 3A4,inconclusive
same,AC50,Cytochrome P450 2D6,17.8 µM (inconclusive)
COc1cc2c(cc1OC)C(=O)C(Br)CC2 (stereo not given),CC50,Vero,26.4 µM (active)
same,CC50,[6],> 40 µM (active)
CC(=O)O[C@]1(C(C)=O)CC[C@@H]2[C@@H]3C=C(C)C4=CC(=O)CC[C@@]4(C)[C@H]3CC[C@]21C,AC50,Cytochrome P450 2C9,12.6 µM (inconclusive)
same,AC50,Cytochrome P450 3A4,inconclusive
Cc1sc2nc3ccc(NCc4ccco4)nn3c(=O)c2c1C,CC50,Vero,> 40 µM (active)
same,IC50,[7],> 66 µM (inactive)
same,IC50,Genome polyprotein,> 100 µM (active)
same,IC50,[8],> 66 µM (inactive)
CCOC(=O)N1CCN(C2=C(NS(=O)(=O)c3ccc(Br)cc3)C(=O)c3ccccc3C2=O)CC1,CC50,Vero,> 40 µM (active)
COc1cc(CN2CCN(c3cc(C)ccc3C)CC2)ccc1O,IC50,[3],1.4 µM (active)
same,AC50,INS1,1.66 µM (active)
same,IC50,[5],2.74 µM (active)
CSc1nc2ccccc2cc1/C=C(\C#N)c1cccc(Cl)c1,AC50,Cytochrome P450 2C9,39.8 µM (inconclusive)
same,AC50,[9],1.17 µM (active)
same,AC50,Cytochrome P450 3A4,inconclusive
